{
  "source": "patent US12178878B2",
  "about": "“Amyloid peptide scaffolds coordinate with Alzheimer's disease drugs” (The University of Massachusetts, priority 2018, dated 2024)",
  "assay_type_in_all_cases": "binding",
  "key": {"[1]": {"tested_on": "[…] (SEQ ID NO: 4) amyloid peptide", "details": "for capturing efficiency: relative to 2nd pellet wash, UV-Vis; for AD compound captured, Wash 1 / AD compound captured, Wash 2 / AD compound captured, Wash 3: 1000 μM inhibitor solution added; for AD compound captured, Wash 1: 1st pellet wash; for AD compound captured, Wash 2: 2nd pellet wash; for AD compound captured, Wash 2 / AD compound captured, Wash 3: room temperature; for AD compound captured, Wash 3: 3rd pellet wash", "procedure": "Amyloid Fibrils Preparation and Characterization. For the formation of fibrils, the amyloid peptides were dispersed in DI water at a 10 mg/ml, vortexed, heated at 60° C. for 30 sec, and sonicated for 15 mins (this cycle was repeated 10 times overall), and finally left overnight at room temperature to form a hydrogel.\nA control using 1 mL of 0.1 M PBS (no inhibitor) was also prepared. The complexed amyloid/inhibitor materials were then transferred to 5 mL conical Eppendorf tubes, and centrifuged for 15 mins at 4,400 rpm (14° C.). The supernatant was decanted, and 2 mL of DI water were subsequently added to wash the pellet (followed by vortexing until obtaining a homogenous dispersion) in order to remove any unbound inhibitor. The samples were then centrifuged again at the same conditions so as to pelletize the amyloid materials, and the supernatant was decanted. Another 2 mL of DI water were then added into the pellet, the mixture was vortexed, and the physically bound inhibitor into the amyloid peptides was quantified by UV-Vis between 200-600 nm and MS. This step is denoted as wash 1 in our study. Two additional pellet purification cycles were realized with replacement of the decanted volume each time with 2 mL of fresh DI water (denoted as wash 2 and wash 3 respectively). The inhibitor-containing amyloid peptides were normalized at 400 nm over the respective no inhibitor-containing ones at the specific washing step."}, "[2]": {"tested_on": "[…] (SEQ ID NO: 3) amyloid peptide", "assay": "Amyloid peptide/inhibitor coordination in dilute solution (1 mg/mL), drug captured after pellet washings", "details": "for AD compound captured, Wash 1 / AD compound captured, Wash 2 / AD compound captured, Wash 3: 150 μM inhibitor loaded; for AD compound captured, Wash 1: 1st pellet wash; for AD compound captured, Wash 2: 2nd pellet wash; for AD compound captured, Wash 3: 3rd pellet wash; for fraction of the 150 μM loaded drug incorporated into the peptide: UV-Vis, first wash", "procedure": "Amyloid Peptide/Inhibitor Coordination Studies in Dilute Solutions. […] Subsequently, 1 mL of DI water was added to wash the pellet (followed by vortexing until obtaining a homogenous dispersion) in order to remove any unbound inhibitor. The samples were then centrifuged again at the same conditions so as to pelletize the amyloid materials, and the supernatant was decanted. Another 1 mL of DI water was then added into the pellet, the mixture was vortexed, and the physically bound inhibitor into the dilute amyloid peptide dispersions was quantified by UV-Vis between 200-600 nm and MS. This step is denoted as wash 1 in our study. Two additional pellet purification cycles were realized with replacement of the decanted volume each time with 1 mL of fresh DI water (denoted as wash 2 and wash 3 respectively). The inhibitor-containing peptides amyloids were normalized at 400 nm over the respective no inhibitor-containing amyloid peptides at the specific washing step, and the measured inhibitor peak values (at 315 nm and 323 nm) were subtracted from that of the amyloid peptide carriers at the same wavelength and concentration. The amount of inhibitors coordinated with the amyloid peptide carriers was quantified based on a calibration curve by both UV-Vis and MS.\nThe peak at 315 nm was selected for inhibitor quantification due the absence of peaks at that range for both peptides. […] However, the peak at 315 nm was selected for inhibitor quantification, and the following equation was used for both peptides: A315=A315 ([…]/Donepezil)−A315 ([…])\nThe peak at 323 nm was used for inhibitor quantification due the absence of peaks at that range for both peptides."}, "[3]": {"tested_on": "[…] (SEQ ID NO: 4) amyloid peptide", "details": "for AD compound captured, Wash 1 / AD compound captured, Wash 2 / AD compound captured, Wash 3: 150 μM inhibitor loaded; for AD compound captured, Wash 1: 1st pellet wash; for AD compound captured, Wash 2: 2nd pellet wash; for AD compound captured, Wash 3: 3rd pellet wash; for fraction of the 150 μM loaded drug incorporated into the peptide: UV-Vis, first wash", "procedure": "Amyloid Peptide/Inhibitor Coordination Studies in Dilute Solutions. […]. As a negative control, 1 mL of 0.1 M PBS buffer was added. The mixtures were vortexed and sonicated to homogenously disperse any solid aggregates and stirred overnight to allow for coordination. The mixtures were transferred to 2 mL Eppendorf tubes and centrifuged for 15 mins at 4,400 rpm (14° C.) to pelletize the amyloid bound-inhibitors, and the supernatant was decanted. Subsequently, 1 mL of DI water was added to wash the pellet (followed by vortexing until obtaining a homogenous dispersion) in order to remove any unbound inhibitor. The samples were then centrifuged again at the same conditions so as to pelletize the amyloid materials, and the supernatant was decanted. Another 1 mL of DI water was then added into the pellet, the mixture was vortexed, and the physically bound inhibitor into the dilute amyloid peptide dispersions was quantified by UV-Vis between 200-600 nm and MS. This step is denoted as wash 1 in our study. Two additional pellet purification cycles were realized with replacement of the decanted volume each time with 1 mL of fresh DI water (denoted as wash 2 and wash 3 respectively). The inhibitor-containing peptides amyloids were normalized at 400 nm over the respective no inhibitor-containing amyloid peptides at the specific washing step, and the measured inhibitor peak values (at 315 nm and 323 nm) were subtracted from that of the amyloid peptide carriers at the same wavelength and concentration. The amount of inhibitors coordinated with the amyloid peptide carriers was quantified based on a calibration curve by both UV-Vis and MS.\n. The peak at 315 nm was selected for inhibitor quantification due the absence of peaks at that range for both peptides. […]. However, the peak at 315 nm was selected for inhibitor quantification, and the following equation was used for both peptides: A315=A315 ([…]/Donepezil)−A315 ([…])\n[…]. The peak at 323 nm was used for inhibitor quantification due the absence of peaks at that range for both peptides. […]."}, "[4]": {"details": "YFTGAIIGNFY gel 5 mg/mL, by UV-Vis"}},
  "note": "Where two headings read alike, the source gives them in different places.",
  "data": [
    {"smiles": "COc1cc2c(cc1OC)C(=O)C(CC1CCN(Cc3ccccc3)CC1)C2", "note": "(centres unmarked) [donepezil]", "values": [
      {"measurement": "capturing efficiency", "setting": "[1]; YFTGAIIGNFY 5 mg/mL", "value": 14, "unit": "%"},
      {"measurement": "AD compound captured, Wash 1", "setting": "[1]; YFTGAIIGNFY gel 5 mg/mL, by MS", "value": "154 ± 7", "unit": "µM"},
      {"measurement": "AD compound captured, Wash 2", "setting": "[1]; YFTGAIIGNFY gel 5 mg/mL, by MS", "value": "141 ± 10", "unit": "µM"},
      {"measurement": "AD compound captured, Wash 3", "setting": "[1]; YFTGAIIGNFY gel 5 mg/mL, by MS", "value": "129 ± 24", "unit": "µM"},
      {"measurement": "AD compound captured, Wash 1", "setting": "[1]; [4]", "value": "154 ± 11", "unit": "µM"},
      {"measurement": "AD compound captured, Wash 2", "setting": "[1]; [4]", "value": "135 ± 8", "unit": "µM"},
      {"measurement": "AD compound captured, Wash 3", "setting": "[1]; [4]", "value": "117 ± 5", "unit": "µM"},
      {"measurement": "AD compound captured, Wash 1", "setting": "[2]; FYTGAIIGNYF 1 mg/mL, by MS", "value": "51 ± 3", "unit": "µM"},
      {"measurement": "AD compound captured, Wash 2", "setting": "[2]; FYTGAIIGNYF 1 mg/mL, by MS", "value": "47 ± 0", "unit": "µM"},
      {"measurement": "AD compound captured, Wash 3", "setting": "[2]; FYTGAIIGNYF 1 mg/mL, by MS", "value": "43 ± 4", "unit": "µM"},
      {"measurement": "AD compound captured, Wash 1", "setting": "[2]; FYTGAIIGNYF 1 mg/mL, by UV-Vis", "value": 33, "unit": "µM"},
      {"measurement": "AD compound captured, Wash 1", "setting": "[2]; FYTGAIIGNYF 1 mg/mL, by UV-Vis, listed as Donepezil", "value": "33 ± 4", "unit": "µM"},
      {"measurement": "AD compound captured, Wash 2", "setting": "[2]; FYTGAIIGNYF 1 mg/mL, by UV-Vis", "value": "28 ± 5", "unit": "µM"},
      {"measurement": "AD compound captured, Wash 3", "setting": "[2]; FYTGAIIGNYF 1 mg/mL, by UV-Vis", "value": "20 ± 5", "unit": "µM"},
      {"measurement": "fraction of the 150 μM loaded drug incorporated into the peptide", "setting": "[2]; FYTGAIIGNYF 1 mg/mL", "value": "approximately ⅕"},
      {"measurement": "AD compound captured, Wash 1", "setting": "[3]; YFTGAIIGNFY 1 mg/mL, by MS", "value": "43 ± 6", "unit": "µM"},
      {"measurement": "AD compound captured, Wash 2", "setting": "[3]; YFTGAIIGNFY 1 mg/mL, by MS", "value": "32 ± 4", "unit": "µM"},
      {"measurement": "AD compound captured, Wash 3", "setting": "[3]; YFTGAIIGNFY 1 mg/mL, by MS", "value": "21 ± 9", "unit": "µM"},
      {"measurement": "AD compound captured, Wash 1", "setting": "[3]; YFTGAIIGNFY 1 mg/mL, by UV-Vis", "value": 38, "unit": "µM"},
      {"measurement": "AD compound captured, Wash 1", "setting": "[3]; YFTGAIIGNFY 1 mg/mL, by UV-Vis, listed as Donepezil", "value": "38 ± 4", "unit": "µM"},
      {"measurement": "AD compound captured, Wash 2", "setting": "[3]; YFTGAIIGNFY 1 mg/mL, by UV-Vis", "value": "24 ± 4", "unit": "µM"},
      {"measurement": "AD compound captured, Wash 3", "setting": "[3]; YFTGAIIGNFY 1 mg/mL, by UV-Vis", "value": "5 ± 4", "unit": "µM"},
      {"measurement": "fraction of the 150 μM loaded drug incorporated into the peptide", "setting": "[3]; YFTGAIIGNFY 1 mg/mL", "value": "approximately ¼"}
    ]},
    {"smiles": "Nc1c2c(nc3ccccc13)CCCC2", "note": "[tacrine]", "values": [
      {"measurement": "capturing efficiency", "setting": "[1]; […] 5 mg/mL", "value": "approximately 8%"},
      {"measurement": "AD compound captured, Wash 1", "setting": "[1]; […] gel 5 mg/mL, by MS", "value": "98 ± 9", "unit": "µM"},
      {"measurement": "AD compound captured, Wash 2", "setting": "[1]; […] gel 5 mg/mL, by MS", "value": "75 ± 4", "unit": "µM"},
      {"measurement": "AD compound captured, Wash 3", "setting": "[1]; […] gel 5 mg/mL, by MS", "value": "63 ± 8", "unit": "µM"},
      {"measurement": "AD compound captured, Wash 1", "setting": "[1]; […] gel 5 mg/mL, by UV-Vis", "value": "90 ± 4", "unit": "µM"},
      {"measurement": "AD compound captured, Wash 2", "setting": "[1]; […] gel 5 mg/mL, by UV-Vis", "value": "80 ± 5", "unit": "µM"},
      {"measurement": "AD compound captured, Wash 3", "setting": "[1]; […] gel 5 mg/mL, by UV-Vis", "value": "73 ± 5", "unit": "µM"},
      {"measurement": "AD compound captured, Wash 1", "setting": "[2]; […] 1 mg/mL, by MS", "value": "29 ± 4", "unit": "µM"},
      {"measurement": "AD compound captured, Wash 2", "setting": "[2]; […] 1 mg/mL, by MS", "value": "24 ± 8", "unit": "µM"},
      {"measurement": "AD compound captured, Wash 3", "setting": "[2]; […] 1 mg/mL, by MS", "value": "23 ± 6", "unit": "µM"},
      {"measurement": "AD compound captured, Wash 2", "setting": "[2]; […] 1 mg/mL, by UV-Vis", "value": "17 ± 4", "unit": "µM"},
      {"measurement": "AD compound captured, Wash 3", "setting": "[2]; […] 1 mg/mL, by UV-Vis", "value": "13 ± 3", "unit": "µM"},
      {"measurement": "fraction of the 150 μM loaded drug incorporated into the peptide", "setting": "[2]; […] 1 mg/mL", "value": "approximately 1/7"},
      {"measurement": "AD compound captured, Wash 1", "setting": "[3]; […] 1 mg/mL, by MS", "value": "37 ± 2", "unit": "µM"},
      {"measurement": "AD compound captured, Wash 2", "setting": "[3]; […] 1 mg/mL, by MS", "value": "2 ± 2", "unit": "µM"},
      {"measurement": "AD compound captured, Wash 3", "setting": "[3]; […] 1 mg/mL, by MS", "value": 0, "unit": "µM"},
      {"measurement": "AD compound captured, Wash 1", "setting": "[3]; […] 1 mg/mL, by UV-Vis", "value": 26, "unit": "µM"},
      {"measurement": "AD compound captured, Wash 1", "setting": "[3]; […] 1 mg/mL, by UV-Vis, listed as Tacrine", "value": "26 ± 2", "unit": "µM"},
      {"measurement": "AD compound captured, Wash 2", "setting": "[3]; […] 1 mg/mL, by UV-Vis", "value": "14 ± 2", "unit": "µM"},
      {"measurement": "AD compound captured, Wash 3", "setting": "[3]; […] 1 mg/mL, by UV-Vis", "value": "3 ± 2", "unit": "µM"},
      {"measurement": "fraction of the 150 μM loaded drug incorporated into the peptide", "setting": "[3]; […] 1 mg/mL", "value": "approximately ⅕"}
    ]}
  ]
}
